The text below walks through data of article PMC5585256 (Scientific Reports, 2017).

One may read the IC50 as the concentration needed to halve the response being measured. Low readings indicate higher potency, high ones lower potency.

What all share (format): biochemical
The target in series [1] is T1, WT pBChE (plant-derived human butyrylcholinesterase) (Homo sapiens, UniProt P06276).
T1 construct: barley alpha-amylase signal peptide (N); made in house; host or cells: Nicotiana benthamiana (transient, MagnICON/TMV vector, Agrobacterium infiltration)
Put plainly: Inhibition of BTC hydrolysis activity of WT pBChE. To be noted: for Fold increase in sensitivity relative to WT pBChE: WT pBChE (reference). The procedure: (§1) To this end, BTC hydrolysis was analyzed following a 30-minute incubation with the inhibitors.
(§2) The four inhibitors were purchased from Sigma (St Louis, MO).
(§3) Preparations of BChE and variants thereof were incubated in 96-well plate format with indicated concentrations of the inhibitors for 30 min at room temperature followed by activity measurements based on modified Ellman assay using 1 mM BTC as the substrate. IC50 values were determined by non-linear regression (GraphPad Prism) fit according to Equation (4).

The target of series [2] is T2, pBChEV3 (A199S/S287G/A328W/Y332G) (Homo sapiens, UniProt P06276, A227S/A356W/S315G/Y360G).
T2 construct: hexahistidine (C); barley alpha-amylase signal peptide (N); made in house; host or cells: Nicotiana benthamiana (transient, MagnICON/TMV vector)
The series is described as follows: Inhibition of BTC hydrolysis activity of pBChEV3. The settings on record: for Fold increase in sensitivity relative to WT pBChE: pBChEV3 vs WT pBChE. As for the experimental part:
as §1, §2, §3

The target in series [3] is T3, pBChEV4 (A199S/F227A/S287G/A328W/Y332G) (Homo sapiens, UniProt P06276, A227S/A356W/F255A/S315G/Y360G).
T3 construct: hexahistidine (C); barley alpha-amylase signal peptide (N); made in house; host or cells: Nicotiana benthamiana (transient, MagnICON/TMV vector)
Put plainly: Inhibition of BTC hydrolysis activity of pBChEV4. To be noted: for Fold increase in sensitivity relative to WT pBChE: pBChEV4 vs WT pBChE. The procedure: as §1, §2, §3

In a further series the target is T4, WT pBChE (Homo sapiens, UniProt P06276).
T4 construct: barley alpha-amylase signal peptide (N); made in house; host or cells: Nicotiana benthamiana (transient, MagnICON/TMV vector, Agrobacterium infiltration)
Put plainly: Inhibition rate constant for paraoxon, WT pBChE. The settings on record: enzyme WT pBChE.

Series [4] addresses T5, pBChEV2 (F227A/S287G/A328W/Y332A) (Homo sapiens, UniProt P06276, A356W/F255A/S315G/Y360A).
T5 construct: hexahistidine (C); barley alpha-amylase signal peptide (N); made in house; host or cells: Nicotiana benthamiana (transient, MagnICON/TMV vector)
The series is described as follows: Inhibition of BTC hydrolysis activity of pBChEV2. The settings on record: for Fold increase in sensitivity relative to WT pBChE: pBChEV2 vs WT pBChE. The procedure: as §1, §2, §3

Series [5] has as its target T6, WT hBChE (human plasma-derived butyrylcholinesterase) (Homo sapiens, UniProt P06276).
T6 construct: we first compared WT human plasma-derived (hBChE) to pBChE; from tissue; host or cells: human plasma
Put plainly: Inhibition of BTC hydrolysis activity of WT hBChE. To be noted: for Fold increase in sensitivity relative to WT pBChE: WT hBChE vs WT pBChE. The procedure: as §1, §2, §3

For another series, the target named is T7, pBChEV4 (Homo sapiens, UniProt P06276, A227S/A356W/F255A/S315G/Y360G).
T7 construct: hexahistidine (C); barley alpha-amylase signal peptide (N); made in house; host or cells: Nicotiana benthamiana (transient, MagnICON/TMV vector)
Put plainly: Inhibition rate constant for paraoxon, pBChEV4. The settings on record: enzyme pBChEV4.

Series [6] has as its target T8, pBChEV5 (F227A/S287G/A328W/Y332G) (Homo sapiens, UniProt P06276, A356W/F255A/S315G/Y360G).
T8 construct: hexahistidine (C); barley alpha-amylase signal peptide (N); made in house; host or cells: Nicotiana benthamiana (transient, MagnICON/TMV vector)
The series is described as follows: Inhibition of BTC hydrolysis activity of pBChEV5. To be noted: for Fold increase in sensitivity relative to WT pBChE: pBChEV5 vs WT pBChE. As for the experimental part:
as §1, §2, §3

A short description of series [7]: Radiometric (−)-cocaine hydrolysis assay. The settings on record: substrate (−)-cocaine.

Marks after values point to notes of the source that are not given here.

T8 sequence (P06276 29-602 F255A/S315G/A356W/Y360G): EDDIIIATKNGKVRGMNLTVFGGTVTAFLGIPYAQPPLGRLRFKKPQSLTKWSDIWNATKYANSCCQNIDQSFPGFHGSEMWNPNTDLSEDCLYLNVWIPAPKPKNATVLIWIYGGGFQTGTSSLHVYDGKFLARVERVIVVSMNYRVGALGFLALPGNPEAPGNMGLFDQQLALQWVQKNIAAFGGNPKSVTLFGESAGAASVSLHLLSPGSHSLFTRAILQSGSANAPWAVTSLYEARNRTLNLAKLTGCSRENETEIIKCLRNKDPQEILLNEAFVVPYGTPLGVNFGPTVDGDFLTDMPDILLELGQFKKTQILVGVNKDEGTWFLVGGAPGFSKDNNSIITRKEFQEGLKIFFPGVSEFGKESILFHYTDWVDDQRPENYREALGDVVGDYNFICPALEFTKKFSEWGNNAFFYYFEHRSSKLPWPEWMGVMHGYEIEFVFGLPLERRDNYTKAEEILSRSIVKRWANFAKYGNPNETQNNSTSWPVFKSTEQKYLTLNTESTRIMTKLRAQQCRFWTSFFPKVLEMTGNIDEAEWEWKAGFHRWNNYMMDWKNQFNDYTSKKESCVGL
T3 sequence (P06276 29-602 A227S/F255A/S315G/A356W/Y360G): as the sequence (P06276 29-602 F255A/S315G/A356W/Y360G) above, with A199S counted along it
T5 sequence (P06276 29-602 F255A/S315G/A356W/Y360A): as the sequence (P06276 29-602 F255A/S315G/A356W/Y360G) above, with G332A counted along it
T2 sequence (P06276 29-602 A227S/S315G/A356W/Y360G): as the sequence (P06276 29-602 F255A/S315G/A356W/Y360G) above, with A199S, A227F counted along it
T7 sequence (P06276 29-602 A227S/F255A/S315G/A356W/Y360G): as the sequence (P06276 29-602 F255A/S315G/A356W/Y360G) above, with A199S counted along it

Regarding `CCOP(=O)(OCC)Oc1ccc([N+](=O)[O-])cc1` [Paraoxon, diethyl (4-nitrophenyl) phosphate], the “Fold increase in sensitivity relative to WT pBChE” value was “(1) fold” in series [1]; “(3)^**** fold” in series [2]; 3–7 fold in series [2] (listed as paraoxon); “(6)^**** fold” in series [3]; 3–7 fold in [3] (listed as paraoxon); “(38)^**** fold” in series [4]. In addition, the “Fold increase in sensitivity relative to WT pBChE” value in series [4] (listed as paraoxon) is reported as 40–50 fold; in [5] it was “(0.9) fold”; in series [6] it was “(46)^**** fold”; in series [6] (listed as paraoxon), 40–50 fold. The “inhibition rate constant (ki)” value worked out at 52300 M⁻¹ s⁻¹ against WT pBChE and 283000 M⁻¹ s⁻¹ against pBChEV4.
In the case of `CN(C)C(=O)Oc1cccc([N+](C)(C)C)c1` [Neostigmine, [3-(dimethylcarbamoyloxy)phenyl]-trimethylazanium;bromide], the IC50 in [1] was 229 nM; in series [2], 204 nM; in series [3] it was 155 nM; in series [4] it was 17.8 nM; in [5] it was 162 nM; in series [6], 13.2 nM. Moreover, the “Fold increase in sensitivity relative to WT pBChE” value in [1] is “(1) fold”; in [2], “(1) fold”; in [2] (listed as neostigmine), “near WT levels”; in series [3] it was “(1)^**** fold”; in series [3] (listed as neostigmine) it was “near WT levels”; in [4], “(13)^**** fold”. For the same molecule, the “Fold increase in sensitivity relative to WT pBChE” value in [4] (listed as neostigmine) is 10–20 fold; in series [5], “(1)^**** fold”; in [6], “(17)^**** fold”; in series [6] (listed as neostigmine), 10–20 fold.

B1: WT pBChE (protein, UniProt P06276 29-602, looked up)
Cholinesterase: EDDIIIATKNGKVRGMNLTVFGGTVTAFLGIPYAQPPLGRLRFKKPQSLTKWSDIWNATKYANSCCQNIDQSFPGFHGSEMWNPNTDLSEDCLYLNVWIPAPKPKNATVLIWIYGGGFQTGTSSLHVYDGKFLARVERVIVVSMNYRVGALGFLALPGNPEAPGNMGLFDQQLALQWVQKNIAAFGGNPKSVTLFGESAGAASVSLHLLSPGSHSLFTRAILQSGSFNAPWAVTSLYEARNRTLNLAKLTGCSRENETEIIKCLRNKDPQEILLNEAFVVPYGTPLSVNFGPTVDGDFLTDMPDILLELGQFKKTQILVGVNKDEGTAFLVYGAPGFSKDNNSIITRKEFQEGLKIFFPGVSEFGKESILFHYTDWVDDQRPENYREALGDVVGDYNFICPALEFTKKFSEWGNNAFFYYFEHRSSKLPWPEWMGVMHGYEIEFVFGLPLERRDNYTKAEEILSRSIVKRWANFAKYGNPNETQNNSTSWPVFKSTEQKYLTLNTESTRIMTKLRAQQCRFWTSFFPKVLEMTGNIDEAEWEWKAGFHRWNNYMMDWKNQFNDYTSKKESCVGL
modifications: plant-expressed
In [7], B1 displayed a k cat of 0.0433 s⁻¹.
